The results in this text go back to ChEMBL document CHEMBL5257121, “Discovery of arylsulfonamides as a novel class of allosteric integrase inhibitors with antiviral activity” (Bioorg Med Chem Lett, 2023).

Test [1] deals with Human immunodeficiency virus 1. As to the kind of experiment: Antiviral activity against HIV-1. Format: functional, organism-based.
Test [2] in a line: Allosteric inhibition of LEDGF binding to HIV integrase by InLEAD assay. Details: species or system Human immunodeficiency virus.
In test [3] the test system is Human immunodeficiency virus 1. As to the kind of experiment: Antiviral activity against early stage HIV-1 assessed as disruption of proviral integration. Format: functional, organism-based.
For test [4], the system named is Human immunodeficiency virus 1. The test is described as follows: Antiviral activity against late stage HIV-1 assessed as inhibition of viral replication. Format: functional, organism-based.
The test system of test [5] is Human immunodeficiency virus 1. As to the kind of experiment: Selectivity ratio of IC50 for antiviral activity against early stage HIV-1 to IC50 for antiviral activity against late stage HIV-1. Format: functional.

Usually IC50 stands for the concentration at which inhibition is half-maximal. Consider `COc1ccc(NC(=O)c2cccc(-c3ccccc3S(=O)(=O)NC(C)(C)C(C)(C)C)c2)cc1`, for which the IC50 in test [1] is 27.7 µM; in test [2] it was greater than 22.5 µM.

In the case of `COc1ccc(NC(=O)c2cncc(-c3cc(C)ccc3S(=O)(=O)NC(C)(C)C)c2)cc1`, the IC50 in test [1] is 15.6 µM; in test [2], 8.85 µM.

With `Cc1ccc(-c2c([C@H](OC(C)(C)C)C(=O)O)c(C)nc3ccccc23)cc1C`, the IC50 amounted to 1.67 µM in test [3], 0.031 µM in test [4] and 0.037 µM in test [2]. The “Ratio IC50” value in test [5] came to 53.9.

As for `COc1ccc(NC(=O)c2cc(-c3ccccc3S(=O)(=O)NC(C)(C)C)ccc2Cl)cc1`, the IC50 was greater than 42 µM in test [1] and greater than 67.5 µM in test [2].

With `CC(C)(C)NS(=O)(=O)c1ccccc1-c1cncc(C(=O)Nc2ccc(CCC(=O)O)cc2)c1`, the values for the IC50 in test [1] and in test [2] were 9.31 µM and 1.29 µM, respectively.

Turning to `CC(C)(C)NS(=O)(=O)c1ccccc1-c1cncc(C(=O)Nc2ccc(CCCC(=O)O)cc2)c1`, the IC50 in test [1] turned out to be 7.86 µM; in test [2], 1 µM.

Turning to `COc1ccc(NC(=O)c2cccc(-c3ccccc3S(=O)(=O)NC(C)(C)C)c2)c(C)c1`, the IC50 in test [1] was 5.03 µM; in test [2], 1.91 µM.

With `Cc1ccc(NC(=O)c2cccc(-c3ccccc3S(=O)(=O)NC(C)(C)C)c2)c(C)c1`, the IC50 in test [1] came out at 5.1 µM; in test [2], 1.05 µM.

Turning to `COc1ccc(NC(=O)c2cncc(-c3c(C)cccc3S(=O)(=O)NC(C)(C)C)c2)cc1`, the concentration for half-maximal inhibition (IC50) in test [3] worked out at 25.2 µM; in test [1], 1.4 µM; in test [4], 2.7 µM; in test [2], 1.29 µM. In addition, the “Ratio IC50” value in test [5] is reported as 9.3.

Turning to `COc1ccc(NC(=O)c2cncc(-c3ccc(C)cc3S(=O)(=O)NC(C)(C)C)c2)cc1`, the IC50 in test [1] was 10.8 µM; in test [2], greater than 67.5 µM.

For the compound `COc1ccc(NC(=O)c2cncc(-c3cccc(C)c3S(=O)(=O)NC(C)(C)C)c2)cc1`, the IC50 in test [1] was 16.1 µM; in test [2], greater than 67.5 µM.

As for `COCC1(NS(=O)(=O)c2ccccc2-c2cccc(C(=O)Nc3ccc(OC)cc3)c2)CCCC1`, the IC50 was 16.3 µM in test [3], 5.15 µM in test [1], 7.15 µM in test [4] and greater than 67.5 µM in test [2]. Further, the “Ratio IC50” value in test [5] was 2.3.

Take `COc1ccc(NC(=O)c2cc(-c3ccccc3S(=O)(=O)NC(C)(C)C)ccn2)cc1`: the IC50 in test [1] turned out to be 6.35 µM; in test [2], 3.79 µM.

Take `COc1ccc(NC(=O)c2cc(-c3ccccc3S(=O)(=O)NC(C)(C)C)ccc2F)cc1`: the values for the IC50 in test [1] and in test [2] were 9.43 µM and 2.81 µM, respectively.

On to `COc1ccc(NC(=O)c2cccc(-c3ccccc3S(=O)(=O)NC3(C)CC3)c2)cc1`, for which the IC50 in test [1] is 5.81 µM; in test [2], 5.97 µM.

As for `CC(C)(C)NS(=O)(=O)c1ccccc1-c1cncc(C(=O)Nc2ccc(CCC(=O)NCCNC(=O)c3ccc4c(c3)C(=O)OC43c4ccc(O)cc4Oc4cc(O)ccc43)cc2)c1`, the IC50 in test [2] is 0.368 µM.

With `COC(=O)C(Cc1ccccc1)NC(=O)CCc1ccc(NC(=O)c2cncc(-c3ccccc3S(=O)(=O)NC(C)(C)C)c2)cc1` (stereo not drawn), the IC50 in test [1] came to 3 µM; in test [2], 3.22 µM.

As for `COc1ccc(NC(=O)c2cccc(-c3ccccc3S(=O)(=O)NC(C)(C)C)n2)cc1`, the IC50 is 11.2 µM in test [1] and greater than 33.8 µM in test [2].

For `COc1ccc(NC(=O)c2cccc(-c3ccccc3S(=O)(=O)NC3(C)CCC3)c2)cc1`, the IC50 came out at 5.79 µM in test [1] and 2.23 µM in test [2].

Turning to `CCC(C)(C)NS(=O)(=O)c1ccccc1-c1cccc(C(=O)Nc2ccc(OC)cc2)c1`, the half-inhibitory concentration (IC50) in test [1] worked out at 7.19 µM; in test [2], 17.3 µM.

For `COc1ccc(NC(=O)c2cccc(-c3ccccc3S(=O)(=O)NC(C)(C)CC(C)(C)C)c2)cc1`, the IC50 in test [1] is 2.91 µM; in test [2] it was greater than 67.5 µM.

`CC(C)(C)NS(=O)(=O)c1ccccc1-c1cccc(C(=O)Nc2ccc(CCC(=O)O)cc2)c1`: the IC50 in test [3] was greater than 42 µM; in test [1] it was 6.53 µM; in test [4], 12 µM; in test [2], 3.74 µM. In addition, the “Ratio IC50” value in test [5] is greater than 3.6.

In the case of `COc1ccc(NC(=O)c2cccc(-c3ccccc3S(=O)(=O)NC(C)(C)C)c2)cc1`, the IC50 in test [1] was 10.9 µM; in test [2] it was 3.69 µM.

With `COc1ccc(NC(=O)c2cncc(-c3ccccc3S(=O)(=O)NC(C)(C)C)c2)cc1`, the IC50 in test [3] came out at 27.3 µM; in test [1], 7.93 µM; in test [4], 5.09 µM; in test [2] it was 1.29 µM. Also, the “Ratio IC50” value in test [5] was 5.4.

Consider `COC(=O)CCc1ccc(NC(=O)c2cccc(-c3ccccc3S(=O)(=O)NC(C)(C)C)c2)cc1`, for which the IC50 in test [1] was 4.91 µM; in test [2], 1.45 µM.
